Laboratory results reported in publication PMC10739329, “Correlation of bioactive marker compounds of an orally applied Morus alba root bark extract with toxicity and efficacy in BALB/c mice” (Frontiers in Pharmacology, 2023).
Values joined by “and” are separate entries in the source; they are usually repeats but may differ in a detail not shown here. Equal values may be shown once. Read-outs that look alike come from different tables or passages of the source.

Assays:
[1] = UPLC-ESI-MS quantitation of sanggenons C and D in serum and tissue samples, acute toxicity study; format: in vivo, BALB/c mice; details: for serum concentration: one (efficacy study) and three (acute toxicity study) hours after the last oral MA60 administration; for concentration at 3 h: BALB/c, mouse, serum, oral
[2] = MS/MS search for metabolites of sanggenons C and D in serum samples; format: in vivo, BALB/c mice
Protocol: In the present study, concentration of bioactive sanggenons C and D was determined in serum and tissue samples and correlated with the administered the doses of MA60. […] Already during dose finding and acute toxicity studies, a high variation in serum concentrations of the selected marker compounds was detected within all three dose groups (30, 100, and 300 mg/kg). No dose dependency could be observed regarding the serum concentrations. This might be due to i) inhomogeneities in the CMC suspension of the MA60 extract, ii) the inter-individual differences in the resorption of sanggenons, or iii) the formation of sanggenon metabolites: • (i) For oral gavage administration, MA60 was suspended in 0.3% carboxymethyl cellulose (CMC) as vehicle. This is based on literature data, where even a higher dose of up to 400 mg/kg of a 70% EtOH extract of M. alba root bark ([Lim et al., 2013]) was previously administered to mice per gavage feeding. […] In the present study, an MS/MS analysis was conducted to also search for metabolites of the selected marker compounds sanggenon C and sanggenon D. The search included (di)glucuronides and hydroxylated metabolites as well as further conjugates such as sulfated metabolites.

[3] = in vivo; cited from earlier work
[4] = MA60 100 mg/kg oral once daily for seven days, samples 68-71 in order, sacrificed 24 h after last application
[5] = MA60 30 mg/kg oral, samples 26-30 in order, 3 h after last treatment
[6] = MA60 100 mg/kg oral, samples 31-35 in order, 3 h after last treatment
[7] = MA60 300 mg/kg oral, samples 36-40 in order, 3 h after last treatment

sanggenon D
quantified amount of sanggenon D liver, individual samples [4]: n.f. | quantified amount of sanggenon D lung, individual samples [4]: n.f. | sanggenon D in liver (MA60 100 mg/kg oral, after 24 h): could not be determined | sanggenon D in liver (MA60 100 mg/kg oral, mice sacrificed after 1 h): high amount | quantified amount of sanggenon D lung, individual samples (MA60 100 mg/kg oral, samples 64-67 in order, sacrificed 1 h after treatment): n.f. | quantified amount of sanggenon D liver, individual samples [1, 5]: n.f. | quantified amount of sanggenon D lung, individual samples [1, 5]: n.f. (4×) and 1,005.12 ng/mL | quantified amount of sanggenon D liver, individual samples [1, 6]: n.f. and 34.18 ng/mL and 26.97 ng/mL | quantified amount of sanggenon D lung, individual samples [1, 6]: n.f. (2×) and 2,980.27 ng/mL and 343.27 ng/mL and 10,306.71 ng/mL | quantified amount of sanggenon D liver, individual samples [1, 7]: 70.13 ng/mL and 89.18 ng/mL and 979.27 ng/mL and 996.87 ng/mL and 447.53 ng/mL | quantified amount of sanggenon D lung, individual samples [1, 7]: n.f. | sanggenon D concentration in liver tissues ([1]; high dose group (300 mg/kg), #38 and #39): ~1 µg/mL | sanggenon D in liver samples ([1]; low dose group (MA60 30 mg/kg oral)): not detected | serum concentration [1]: less than 1% | metabolites ((di)glucuronides, hydroxylated, sulfated conjugates) in serum samples ([2]; MS/MS analysis after oral MA60): neither the corresponding masses nor the phase-II-conjugates could be detected

CC(C)=CC[C@]12Oc3cc(O)c([C@H]4C=C(C)C[C@H](c5ccc(O)cc5O)[C@H]4C(=O)c4ccc(O)cc4O)c(O)c3C(=O)[C@@]1(O)Oc1cc(O)ccc12 [sanggenon C]
serum concentrations of sanggenon C (group) (MA60 100 mg/kg oral, after 24 h (#68-#71), below this value or not detectable): below 2.77 ng/mL | concentration at 3 h ([1]; 30 mg/kg, MA60 30 mg/kg oral once daily 7 days, 3 h after last treatment, read-out: amount of sanggenon C in serum (dose group)): < 9.1 ng/mL | concentration at 3 h ([1]; 30 mg/kg, MA60 30 mg/kg oral, samples 26-30 in order, 3 h after last treatment, read-out: quantified amount of sanggenon C serum, individual samples): 4.97 ng/mL | concentration at 3 h ([1]; 100 mg/kg, MA60 100 mg/kg oral once daily 7 days, 3 h after last treatment, read-out: amount of sanggenon C in serum (dose group)): 7.94 to 31.5 ng/mL | concentration at 3 h ([1]; 300 mg/kg, MA60 300 mg/kg oral once daily 7 days, 3 h after last treatment, read-out: amount of sanggenon C in serum (dose group)): 21.2 to 227 ng/mL | concentration at 3 h ([1]; mice sacrificed 3 hours after the last application, read-out: average serum concentration of sanggenon C): < 2 ng/mL | quantified amount of sanggenon C serum, individual samples [1, 5]: n.f. (3×) and 9.10 ng/mL | quantified amount of sanggenon C serum, individual samples [1, 6]: 7.94 ng/mL and 9.28 ng/mL and 31.53 ng/mL and 11.17 ng/mL and 13.02 ng/mL | quantified amount of sanggenon C serum, individual samples [1, 7]: 25.74 ng/mL and 21.21 ng/mL and 227.26 ng/mL and 24.13 ng/mL and 103.00 ng/mL | serum concentration [1]: less than 1% | metabolites ((di)glucuronides, hydroxylated, sulfated conjugates) in serum samples ([2]; mouse, in vivo, po): neither the corresponding masses nor the phase-II-conjugates could be detected

C=C(C)[C@H](CC=C(C)C)Cc1c(O)cc(OC)c(C(=O)/C=C/c2ccc(O)cc2O)c1O [kuraridin]
metabolites found in rat serum [3]: mono- and di-glucuronides as well as hydroxylated derivatives
